Test [1] has as its target NS3h 2a (JFH1). Put plainly: strain-dependent HCV NS3h unwinding inhibition – biochemical, real-time fluorescence, genotypes 2a and 1b, Set 2, selectivity assay for HCV NS3 helicase inhibitor project, late-stage follow-up (AID 504419). Conditions: Recombinant NS3 helicase.
In test [2] the target is NS3h 1b (con1). The description is as above. Conditions: Recombinant NS3 helicase.

Where “and” joins values, the source holds several entries; their conditions need not be identical. Identical values can stand only once. Calls of active or inactive are those of the source. No rule for the calls is given here.

Results on 21 molecules are retold here after PubChem BioAssay AID504419 (The Scripps Research Institute Molecular Screening Center, 2011).

For `COc1cc(Br)cc(C2C(C(=O)c3ccc(C)o3)=C(O)C(=O)N2c2cc(C)on2)c1OC` (stereo unspecified), the IC50 in test [1] and in test [2] was > 100 µM (inactive) in each case.

With `O=C(NC(=S)Nc1ccc(-c2ccc(CO)o2)cc1)c1cccs1`, the IC50 in test [1] and in test [2] was > 100 µM (inactive) throughout.

Turning to `CCOc1ccc(C2C(C(=O)c3ccc(C)o3)=C(O)C(=O)N2Cc2ccco2)cc1` (stereo unspecified), the IC50 in test [1] and in test [2] was > 100 µM (inactive) in each case.

Consider `Cc1ccc2nc(-c3ccc4nc(-c5ccc(NC(=O)c6ccc7nc(-c8ccc(N)cc8)sc7c6)cc5)sc4c3)sc2c1S(=O)(=O)O`, for which the IC50 is 2.52 µM in test [1] and 7.57 µM in test [2].

Consider `COc1cc(OC)c2c(-c3ccccc3)cc(=O)oc2c1[C@H](CCN1CCN(c2ccccc2)CC1)c1ccc(N(C)C)cc1`, for which the IC50 in test [1] is > 80.3 µM (inactive); in test [2], > 33.2 µM (inactive).

`CC(=O)c1ccc(-c2cccc(-c3cc(=O)oc4ccc(C(C)(C)C)cc34)c2)cc1`: the IC50 in test [1] and in test [2] was > 100 µM (inactive) in each case.

For `O=C(Nc1nc(-c2ccco2)c(-c2ccco2)s1)C1CCC1`, the values for the IC50 in test [1] and in test [2] were > 100 µM (inactive) and > 16.4 µM (inactive), respectively.

Regarding `COc1cc(OC)c2ccc(=O)oc2c1[C@H](CCN1CCN(c2ccccc2)CC1)c1ccc(N(C)C)cc1`, the IC50 in test [1] and in test [2] was > 100 µM (inactive) throughout.

For `CN(C)c1ccc(O)c2c1C[C@H]1C[C@H]3[C@H](N(C)C)C(=O)C(C(N)=O)=C(O)[C@@]3(O)C(=O)C1=C2O`, in test [1], the IC50 was > 100 µM (inactive). For the same molecule, in test [2], the IC50 entry was “inactive”.

Regarding `NS(=O)(=O)c1ccc2nc(NC(=O)c3ccc4ncoc4c3)sc2c1`, the IC50 result in test [1] is “inactive”. Also, the IC50 in test [2] is > 26.5 µM (inactive).

Consider `Cc1ccc2nc(-c3ccc4nc(-c5ccc(NC(=O)c6ccc(N(C)C)cc6)cc5)sc4c3)sc2c1S(=O)(=O)O`, for which the IC50 in test [1] is 6.15 µM. The IC50 entry in test [2] was “inactive”.

In the case of `CCCCOc1ccc(C2C(C(=O)c3ccc(C)o3)=C(O)C(=O)N2c2cc(C)on2)cc1` (stereo unspecified), the IC50 in test [1] and in test [2] was > 100 µM (inactive) throughout.

Turning to `Cc1ccc2nc(-c3ccc4nc(-c5ccc(NC(=O)c6ccc(C(C)(C)C)cc6)cc5)sc4c3)sc2c1S(=O)(=O)O`, in test [1], the IC50 was 4.96 µM. For the same molecule, the IC50 entry in test [2] was “inactive”.

With `COc1c(N2CCN(C(=S)NCc3ccccc3)C(C)C2)c(F)cc2c(=O)c(C(=O)O)cn(C3CC3)c12` (stereo unspecified), the IC50 in test [1] and in test [2] was > 100 µM (inactive) in each case.

In the case of `NS(=O)(=O)c1ccc2nc(NC(=O)c3ccc4ncsc4c3)sc2c1`, the IC50 in test [1] is > 10.9 µM (inactive). In addition, in test [2], the IC50 result was “inactive”.

For the molecule `Cc1cc(N2C(=O)C(O)=C(C(=O)c3ccc(C)o3)C2c2cccc(Cl)c2)no1` (stereo unspecified), the IC50 in test [1] and in test [2] was > 100 µM (inactive) in each case.

Take `CC1CCCCC1NC(=O)COC(=O)c1c2c(nc3ccccc13)/C(=C/c1ccco1)CC2` (stereo unspecified): the IC50 in test [1] was > 100 µM (inactive). Besides, the IC50 result in test [2] is “inactive”.

For the molecule `Cc1ccc2nc(-c3ccc(NC(=O)c4ccc(F)cc4)cc3)sc2c1`, the IC50 in test [1] and in test [2] was > 100 µM (inactive) each time.

With `Cc1cc(N2C(=O)C(O)=C(C(=O)c3ccc(C)o3)C2c2cc(Cl)cc(Cl)c2)no1` (stereo unspecified), the IC50 in test [1] and in test [2] was > 100 µM (inactive) each time.

With `COc1ccc(S(=O)(=O)Nc2ccc(-c3nc4ccc(-c5nc6ccc(C)c(S(=O)(=O)O)c6s5)cc4s3)cc2)cc1`, the IC50 entry in test [1] and in test [2] was “inactive” throughout.

Take `Cc1ccc2nc(-c3ccc4nc(-c5ccc(NC(=O)c6ccc7nc(-c8ccc(NC(=O)OCC9c%10ccccc%10-c%10ccccc%109)cc8)sc7c6)cc5)sc4c3)sc2c1S(=O)(=O)O`: the IC50 in test [1] was 2.09 µM and > 28 µM (inactive).

The term IC50 denotes the concentration at which inhibition is half-maximal.
